In patent publication US8632789B2, “System and method for delivery of DNA-binding chemotherapy drugs using nanoparticles” (Syracuse University, priority 2010, dated 2014):

Assay: Thermal denaturation (melting) of DNA-capped AuNP by UV-vis at 260 nm as a function of DOX loading
Type: physicochemical
Conditions: control studies, r=12; [DOX]=5.9 μM; [AuNP]=13.7 nM
Procedure: To probe the uptake of DOX via intercalation to 1ab-AuNP, we investigated the thermal denaturation of the 1ab strands by measuring increase in extinction at 260 nm using UV-visible spectroscopy (UV-vis).
We next utilized the 1ab- or 2ab-AuNP prepared above, with dsDNA-functionalization, for drug (DOX) loading. For each DOX binding and melting experiment, 1ab- or 2ab-AuNP were incubated for 40 min with DOX at specific ratios, r=[DOX]/[1ab/2ab]. In this study, we explored r=0-12, based on the number of 1ab per AuNP, as well as the number of binding sites at each 1ab. Next, each DOX-1ab-AuNP was analyzed via thermal denaturation melting experiments using temperature controlled UV-vis at Abs=260 nm and a heating rate of 1° C./min from 25° C. to 80° C. Each melting temperature was taken as the maximum of a peak-fitted first derivative plot of its corresponding melting curve (using PeakFit® Peak Separation and Analysis Software, V.4.12).
UV-visible Absorption (UV-vis): The UV-vis measurements were collected on a Varian Cary100 Bio UV-vis spectrophotometer between 200-900 nm. The instrument is equipped with an 8-cell automated holder with high precision Peltier heating controller.

Compound: COc1cccc2c1C(=O)c1c(O)c3c(c(O)c1C2=O)C[C@@](O)(C(=O)CO)C[C@@H]3O[C@H]1C[C@H](N)[C@H](O)[C@H](C)O1 [DOX, doxorubicin]
- Cooperative melting in the temperature range of ~55-65° C.: not observed
